Measured values from ChEMBL document CHEMBL1201862, “PubChem BioAssay data set” (2004).
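Cells were grown in 96-well plates and exposed to each compound for 48 hours at five concentrations; endpoints were interpolated linearly between bracketing concentrations, or set to the highest concentration if not reached. GI50 marks 50% less growth.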 Activity calls are given as the source filed them. Cut-off read from the data, not from the text of the source: active = GI50 up to about 1.1 µM and inactive = higher.

Tests used:
Assay in all cases: DTP human tumour cell line panel, 48 h
MDA-N = tested on: MDA-N
HCT-15 = tested on: HCT-15
U-251 = tested on: U-251
UO-31 = tested on: UO-31
MCF7 = tested on: MCF7
M14 = tested on: M14
EKVX = tested on: EKVX
IGROV-1 = tested on: IGROV-1
OVCAR-5 = tested on: OVCAR-5
NCI-H460 = tested on: NCI-H460
K562 = tested on: K562
PC-3 = tested on: PC-3
SW-620 = tested on: SW-620
LOX IMVI = tested on: LOX IMVI
Malme-3M = tested on: Malme-3M
CAKI-1 = tested on: CAKI-1
NCI-H522 = tested on: NCI-H522
MDA-MB-435 = tested on: MDA-MB-435
CCRF-CEM = tested on: CCRF-CEM
RXF 393 = tested on: RXF 393

| Structure (SMILES) | GI50 (MDA-N) | GI50 (HCT-15) | GI50 (U-251) | GI50 (UO-31) | GI50 (MCF7) | GI50 (M14) | GI50 (EKVX) | GI50 (IGROV-1) | GI50 (OVCAR-5) | GI50 (NCI-H460) | GI50 (K562) | GI50 (PC-3) | GI50 (SW-620) | GI50 (LOX IMVI) | GI50 (Malme-3M) | GI50 (CAKI-1) | GI50 (NCI-H522) | GI50 (MDA-MB-435) | GI50 (CCRF-CEM) | GI50 (RXF 393) |
| --- | --- | --- | --- | --- | --- | --- | --- | --- | --- | --- | --- | --- | --- | --- | --- | --- | --- | --- | --- | --- |
| Cc1ccc(S(=O)(=O)c2ccsc2NC(=O)c2ccccc2)cc1 | 3.39 µM (inactive) | > 100 µM | 49.3 µM (inactive) | > 49.3 µM (inactive) | > 26.7 µM (inactive) | > 100 µM (inactive) | > 55.6 µM (inactive) | > 43.3 µM (inactive) | > 100 µM (inactive) | 41.1 µM (inactive) | 2.17 µM (inactive) | > 81.5 µM (inactive) | > 100 µM (inactive) | > 64 µM (inactive) | > 100 µM (inactive) | 40.7 µM (inactive) | > 100 µM (inactive) | 3.11 µM (inactive) | – | – |
| COC(=O)c1ccccc1/C=C1\Cc2cc3c(cc2C1=O)CCC3 | 3.78 µM (inactive) | 29.8 µM | 43 µM (inactive) | > 100 µM (inactive) | 40.6 µM (inactive) | 24 µM (inactive) | > 100 µM (inactive) | > 100 µM (inactive) | > 100 µM (inactive) | > 100 µM (inactive) | – | 8.51 µM (inactive) | > 100 µM (inactive) | > 100 µM (inactive) | > 100 µM (inactive) | > 100 µM (inactive) | 68.9 µM (inactive) | 3.89 µM (inactive) | – | – |
| O=C(c1cc2c(c3ccccc13)NCCN=C2C(F)(F)F)C(F)(F)F | 21.4 µM (inactive) | 45.3 µM | 13.5 µM (inactive) | 51.9 µM (inactive) | 19.2 µM (inactive) | 24.9 µM (inactive) | 47.4 µM (inactive) | 29.6 µM (inactive) | 65.3 µM (inactive) | 15.5 µM (inactive) | 7.16 µM (inactive) | 14.6 µM (inactive) | 35.2 µM (inactive) | 13.7 µM (inactive) | – | 32.4 µM (inactive) | 20.6 µM (inactive) | 34.2 µM (inactive) | 17 µM (inactive) | 23.3 µM (inactive) |
| CSc1ncc2c(n1)sc1c(=O)n(-c3ccccc3)cnc12 | > 100 µM (inactive) | > 100 µM | > 100 µM (inactive) | > 100 µM (inactive) | – | > 100 µM (inactive) | – | > 100 µM (inactive) | > 100 µM (inactive) | > 100 µM (inactive) | > 100 µM (inactive) | > 100 µM (inactive) | > 100 µM (inactive) | > 100 µM (inactive) | > 100 µM (inactive) | > 100 µM (inactive) | > 100 µM (inactive) | > 100 µM (inactive) | > 100 µM (inactive) | > 100 µM (inactive) |
| C=CC[C@@H](N)C(=O)N(C)[C@@H](C)[C@@H](O)c1ccccc1 | > 100 µM (inactive) | > 100 µM | > 100 µM (inactive) | > 100 µM (inactive) | – | > 100 µM (inactive) | – | 82.8 µM (inactive) | – | > 100 µM (inactive) | – | > 100 µM (inactive) | > 100 µM (inactive) | > 100 µM (inactive) | – | > 100 µM (inactive) | 12.4 µM (inactive) | > 100 µM (inactive) | > 100 µM (inactive) | – |
| CCOC(=O)C(C)c1nc2cc(C(F)(F)F)ccc2[nH]c1=O (stereo not drawn) | > 100 µM (inactive) | > 100 µM | > 100 µM (inactive) | > 100 µM (inactive) | > 100 µM (inactive) | > 100 µM (inactive) | 46.5 µM (inactive) | – | > 100 µM (inactive) | > 100 µM (inactive) | 59.8 µM (inactive) | 49 µM (inactive) | > 100 µM (inactive) | > 100 µM (inactive) | > 100 µM (inactive) | > 100 µM (inactive) | – | > 100 µM (inactive) | > 100 µM (inactive) | > 100 µM (inactive) |
| O=[N+]([O-])c1ccc(CSc2nn(Cc3ccc([N+](=O)[O-])cc3)cc3ncnc2-3)cc1 | 33 µM (inactive) | 43.1 µM | > 10 µM (inactive) | 12.1 µM (inactive) | 27.9 µM (inactive) | 34.8 µM (inactive) | 69.3 µM (inactive) | 20.4 µM (inactive) | > 100 µM (inactive) | – | 31.8 µM (inactive) | 35.5 µM (inactive) | 21.7 µM (inactive) | 33.9 µM (inactive) | 27.4 µM (inactive) | 35.2 µM (inactive) | 22.3 µM (inactive) | 21.1 µM (inactive) | > 10 µM (inactive) | – |
| COC1=CC(=O)N(C)C(O)C1(C#N)OC1OC(CO)C(O)C(O)C1O (stereo not drawn) | > 100 µM (inactive) | > 100 µM | > 100 µM (inactive) | > 100 µM (inactive) | > 100 µM (inactive) | > 100 µM (inactive) | > 100 µM (inactive) | > 100 µM (inactive) | > 100 µM (inactive) | > 100 µM (inactive) | > 10 µM (inactive) | > 100 µM (inactive) | > 100 µM (inactive) | > 100 µM (inactive) | – | > 100 µM (inactive) | > 100 µM (inactive) | > 100 µM (inactive) | > 10 µM (inactive) | – |
| Nc1ccc(Sc2nnc(N)s2)cc1 | > 100 µM (inactive) | > 100 µM | > 100 µM (inactive) | > 100 µM (inactive) | > 100 µM (inactive) | > 100 µM (inactive) | > 100 µM (inactive) | > 100 µM (inactive) | > 100 µM (inactive) | > 100 µM (inactive) | > 100 µM (inactive) | > 100 µM (inactive) | > 100 µM (inactive) | – | – | – | > 100 µM (inactive) | > 100 µM (inactive) | > 100 µM (inactive) | – |
| CC(C)(C)OC(=O)C1C(=O)NC(=O)CC1CC(OCc1ccccc1)C(COCc1ccccc1)OCc1ccccc1 (stereo not drawn) | 16.2 µM (inactive) | 4.41 µM | 5.18 µM (inactive) | 2.19 µM (inactive) | 4.51 µM (inactive) | 14 µM (inactive) | 16.5 µM (inactive) | 23.2 µM (inactive) | – | 13.4 µM (inactive) | 5.19 µM (inactive) | 6.44 µM (inactive) | 9.33 µM (inactive) | 10.9 µM (inactive) | 3.06 µM (inactive) | – | – | 5.3 µM (inactive) | 11.6 µM (inactive) | 2.55 µM (inactive) |
| O=C1c2c(O)cc(O)cc2C(C2OC(CO)C(O)C(O)C2O)c2cc(CO)cc(O)c21 (stereo not drawn) | > 100 µM (inactive) | > 100 µM | > 100 µM (inactive) | > 100 µM (inactive) | > 100 µM (inactive) | > 100 µM (inactive) | > 100 µM (inactive) | > 100 µM (inactive) | > 100 µM (inactive) | > 100 µM (inactive) | > 100 µM (inactive) | > 100 µM (inactive) | > 100 µM (inactive) | – | 55.7 µM (inactive) | – | – | > 100 µM (inactive) | > 10 µM (inactive) | – |
| Cn1c2ccccc2c2c3c(c4c5ccccc5n(C)c4c21)C(=O)N(c1ccccc1)C3=O | > 100 µM (inactive) | > 100 µM | > 100 µM (inactive) | > 100 µM (inactive) | > 100 µM (inactive) | > 100 µM (inactive) | > 100 µM (inactive) | 98.6 µM (inactive) | > 100 µM (inactive) | > 100 µM (inactive) | > 100 µM (inactive) | > 100 µM (inactive) | > 100 µM (inactive) | > 100 µM (inactive) | > 100 µM (inactive) | > 100 µM (inactive) | 44.4 µM (inactive) | > 100 µM (inactive) | > 100 µM (inactive) | – |
| CCSc1[nH]c(/N=C(/NC(=O)c2ccccc2)NC(C)C)c(C(N)=O)c1C(N)=O | > 10 µM (inactive) | > 10 µM | – | – | > 10 µM (inactive) | > 10 µM (inactive) | > 10 µM (inactive) | > 10 µM (inactive) | – | – | > 10 µM (inactive) | > 10 µM (inactive) | > 10 µM (inactive) | > 10 µM (inactive) | > 10 µM (inactive) | > 10 µM (inactive) | – | > 10 µM (inactive) | > 10 µM (inactive) | > 10 µM (inactive) |
| COC(=O)C(C)(C)OCc1ccc(C2NC(=O)N(c3cccc(Cl)c3)C(=O)N2c2cccc(Cl)c2)cc1 (stereo not drawn) | 55.8 µM (inactive) | 19.6 µM | 58.5 µM (inactive) | 25.3 µM (inactive) | 35.7 µM (inactive) | 65.3 µM (inactive) | 10.5 µM (inactive) | 22 µM (inactive) | > 100 µM (inactive) | 29.4 µM (inactive) | 7.45 µM (inactive) | 20.2 µM (inactive) | 75.5 µM (inactive) | – | – | 35.2 µM (inactive) | 10.6 µM (inactive) | 46 µM (inactive) | 10.6 µM (inactive) | 26.4 µM (inactive) |
| COc1cc(C(c2ccccc2)N2C(=O)CC[C@H]2C(=O)O)cc(OC)c1OC (stereo partly drawn) | > 100 µM (inactive) | > 100 µM | > 100 µM (inactive) | > 100 µM (inactive) | > 100 µM (inactive) | > 100 µM (inactive) | > 100 µM (inactive) | > 100 µM (inactive) | > 100 µM (inactive) | > 100 µM (inactive) | > 100 µM (inactive) | > 100 µM (inactive) | > 100 µM (inactive) | > 100 µM (inactive) | > 100 µM (inactive) | > 100 µM (inactive) | > 100 µM (inactive) | > 100 µM (inactive) | > 100 µM (inactive) | – |
| CCOC(=O)CNC(=O)C(CSC(=O)N(O)c1ccc(Cl)cc1)NC(=O)CCC(N)C(=O)OCC (stereo not drawn) | 36 µM (inactive) | > 50 µM | > 50 µM (inactive) | > 50 µM (inactive) | > 50 µM (inactive) | 34.8 µM (inactive) | 12.5 µM (inactive) | 4.14 µM (inactive) | > 50 µM (inactive) | > 50 µM (inactive) | 11.8 µM (inactive) | > 50 µM (inactive) | 14.8 µM (inactive) | > 50 µM (inactive) | – | > 50 µM (inactive) | – | 30.1 µM (inactive) | > 50 µM (inactive) | > 50 µM (inactive) |
